This note sets out measurements from US8741915B2, “Dihydropyrimidin-2(1H)-one compounds as S-nitrosoglutathione reductase inhibitors” (N30 Pharmaceuticals, Inc., priority 2009, dated 2014).

Bounds are passed on as bounds.

The target in the first experiment is GSNOR (Homo sapiens (Human), UniProt P11766). Nature of the experiment: GSNOR assay (inhibition of GSNOR activity in vitro, change in 340 nm absorbance with GSNO/NADH). The following applies: GSNOR IC50, Table 1, racemates and separated enantiomers.
Chain of GSNOR (P11766 whole entry): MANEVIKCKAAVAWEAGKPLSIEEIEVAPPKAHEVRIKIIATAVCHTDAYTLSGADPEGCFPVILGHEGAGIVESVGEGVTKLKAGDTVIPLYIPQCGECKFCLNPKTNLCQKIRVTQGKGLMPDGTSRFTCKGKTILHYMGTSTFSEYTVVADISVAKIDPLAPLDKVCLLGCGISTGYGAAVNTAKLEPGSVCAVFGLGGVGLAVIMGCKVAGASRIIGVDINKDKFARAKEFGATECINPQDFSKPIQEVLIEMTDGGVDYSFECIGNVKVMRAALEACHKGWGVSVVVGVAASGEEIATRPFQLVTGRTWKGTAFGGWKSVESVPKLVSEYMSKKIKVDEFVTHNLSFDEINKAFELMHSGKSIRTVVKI
Usually IC50 stands for the concentration needed to halve the response being measured. High values mean weaker potency, low ones greater potency. `Cn1cc(C2=C(c3ccsc3)[C@H](c3ccc(C(=O)O)c(O)c3)NC(=O)N2)cn1` [Example 169, (S)-2-hydroxy-4-(6-(1-methyl-1H-pyrazol-4-yl)-2-oxo-5-(thiophen-3-yl)-1,2,3,4-tetrahydropyrimidin-4-yl)benzoic acid] gave an IC50 of 23 nM.
Still for that read-out and setting: in the case of `CCOc1cc([C@@H]2NC(=O)NC(c3cnn(C)c3)=C2c2ccsc2)cc(C(=O)O)c1O` [Example 146, (S)-3-ethoxy-2-hydroxy-5-(6-(1-methyl-1H-pyrazol-4-yl)-2-oxo-5-(thiophen-3-yl)-1,2,3,4-tetrahydropyrimidin-4-yl)benzoic acid] it was 13 nM.

Still in this experiment, the particulars now being: IC50, upper bound (about <).
In turn, `CCOc1cc(C2NC(=O)NC(c3ccco3)=C2c2ccccc2)cc([N+](=O)[O-])c1O` (centres unmarked) [Example 111, 4-(3-ethoxy-4-hydroxy-5-nitrophenyl)-6-(furan-2-yl)-5-phenyl-3,4-dihydropyrimidin-2(1H)-one] came in with an IC50 below 100 nM.
Same read-out and setting: for `CCOc1cc(C2NC(=O)NC(c3ccccc3)=C2c2cccc(C#N)c2)cc([N+](=O)[O-])c1O` (centres unmarked) [Example 29, 3-(4-(3-ethoxy-4-hydroxy-5-nitrophenyl)-2-oxo-6-phenyl-1,2,3,4-tetrahydropyrimidin-5-yl)benzonitrile] the value was below 100 nM.
Same read-out and setting: in the case of `CCOc1cc(C2NC(=O)NC(c3ccc4c(c3)OCO4)=C2c2ccccc2)cc([N+](=O)[O-])c1O` (centres unmarked) [Example 61, 6-(benzo[d][1,3]dioxol-5-yl)-4-(3-ethoxy-4-hydroxy-5-nitrophenyl)-5-phenyl-3,4-dihydropyrimidin-2(1H)-one] it was below 100 nM; in that of `Cn1cc(C2=C(c3ccsc3)[C@H](c3ccc(C(=O)O)c(O)c3)NC(=O)N2)cn1` [Example 169, (S)-2-hydroxy-4-(6-(1-methyl-1H-pyrazol-4-yl)-2-oxo-5-(thiophen-3-yl)-1,2,3,4-tetrahydropyrimidin-4-yl)benzoic acid], below 100 nM; in that of `CCOc1cc(C2NC(=O)NC(c3ccc(C(F)(F)F)cc3)=C2c2ccccc2)cc([N+](=O)[O-])c1O` (centres unmarked) [Example 113, 4-(3-ethoxy-4-hydroxy-5-nitrophenyl)-5-phenyl-6-(4-(trifluoromethyl)phenyl)-3,4-dihydropyrimidin-2(1H)-one], below 100 nM.
Still for that read-out and setting: for `O=C1NC(c2ccccc2)=C(c2ccccc2)C(c2cc(O)c(C(=O)O)c(Cl)c2)N1` (centres unmarked) [Example 163, 2-chloro-6-hydroxy-4-(2-oxo-5,6-diphenyl-1,2,3,4-tetrahydropyrimidin-4-yl)benzoic acid] the value was below 100 nM; for `Cn1cc(C2=C(c3ccccc3)C(c3ccc(C(=O)O)c(O)c3)NC(=O)N2)cn1` (centres unmarked) [Example 167, 2-hydroxy-4-(6-(1-methyl-1H-pyrazol-4-yl)-2-oxo-5-phenyl-1,2,3,4-tetrahydropyrimidin-4-yl)benzoic acid], below 100 nM.
In turn, `O=C1NC(c2ccccc2)=C(c2ccccc2)C(c2ccc(O)c([N+](=O)[O-])c2)N1` (centres unmarked) [Example 95, 4-(4-hydroxy-3-nitrophenyl)-5,6-diphenyl-3,4-dihydropyrimidin-2(1H)-one] registered a concentration for half-maximal inhibition (IC50) below 1000 nM.
The same measure, in the same setting: for `CN(C)CCOc1cc(C2NC(=O)NC(c3ccccc3)=C2c2ccccc2)cc([N+](=O)[O-])c1O` (centres unmarked) [Example 170, 4-(3-(2-(dimethylamino)ethoxy)-4-hydroxy-5-nitrophenyl)-5,6-diphenyl-3,4-dihydropyrimidin-2(1H)-one] the value was below 1000 nM; for `COc1cc(C2NC(=O)NC(c3ccccc3)=C2c2ccccc2)cc([N+](=O)[O-])c1O` (centres unmarked) [Example 9, 4-(4-hydroxy-3-methoxy-5-nitrophenyl)-5,6-diphenyl-3,4-dihydropyrimidin-2(1H)-one], below 100 nM.
On the same count and under the same terms, in the case of `O=C1NC(c2ccccc2)=C(c2ccccc2)C(c2cccc(C(=O)O)c2)N1` (centres unmarked) [Example 93, 3-(2-oxo-5,6-diphenyl-1,2,3,4-tetrahydropyrimidin-4-yl)benzoic acid] it was below 100000 nM; in that of `CCOc1cc(C2NC(=O)NC(c3ccccc3)=C2c2cccc(OC)c2)cc([N+](=O)[O-])c1O` (centres unmarked) [Example 23, 4-(3-ethoxy-4-hydroxy-5-nitrophenyl)-5-(3-methoxyphenyl)-6-phenyl-3,4-dihydropyrimidin-2(1H)-one], below 100 nM.
The same measure, in the same setting: for `COc1cc(C2NC(=O)NC(c3ccccc3)=C2c2ccccc2)cc(O)c1C(=O)O` (centres unmarked) [Example 165, 2-hydroxy-6-methoxy-4-(2-oxo-5,6-diphenyl-1,2,3,4-tetrahydropyrimidin-4-yl)benzoic acid] the value was below 100 nM; for `CCOc1cc(C2NC(=O)NC(c3cccc4ccccc34)=C2c2ccccc2)cc([N+](=O)[O-])c1O` (centres unmarked) [Example 81, 4-(3-ethoxy-4-hydroxy-5-nitrophenyl)-6-(naphthalen-1-yl)-5-phenyl-3,4-dihydropyrimidin-2(1H)-one], below 100 nM; for `CCOc1cc(C2NC(=O)NC(c3ccc(NC(C)=O)cc3)=C2c2ccccc2)cc([N+](=O)[O-])c1O` (centres unmarked) [Example 73, N-(4-(6-(3-ethoxy-4-hydroxy-5-nitrophenyl)-2-oxo-5-phenyl-1,2,3,6-tetrahydropyrimidin-4-yl)phenyl)acetamide], below 100 nM.
In the case of `CCOc1cc(C2NC(=O)NC(c3ccc(C#N)cc3)=C2c2ccccc2)cc([N+](=O)[O-])c1O` (centres unmarked) [Example 63, 4-(6-(3-ethoxy-4-hydroxy-5-nitrophenyl)-2-oxo-5-phenyl-1,2,3,6-tetrahydropyrimidin-4-yl)benzonitrile], the 50% inhibitory concentration (IC50) was below 100 nM.
On the same count and under the same terms, for `CCOc1cc(C2NC(=O)NC(c3ccccc3)=C2c2ccccc2)cc(O)c1C(=O)O` (centres unmarked) [Example 161, 2-ethoxy-6-hydroxy-4-(2-oxo-5,6-diphenyl-1,2,3,4-tetrahydropyrimidin-4-yl)benzoic acid] the value was below 100 nM.
Same read-out and setting: for `CCOc1cc([C@@H]2NC(=O)NC(c3cnn(C)c3)=C2c2ccsc2)cc(C(=O)O)c1O` [Example 146, (S)-3-ethoxy-2-hydroxy-5-(6-(1-methyl-1H-pyrazol-4-yl)-2-oxo-5-(thiophen-3-yl)-1,2,3,4-tetrahydropyrimidin-4-yl)benzoic acid] the value was below 100 nM; for `CCOc1cc(C2NC(=O)NC(c3ccc(NC(=O)OC)cc3)=C2c2ccccc2)cc([N+](=O)[O-])c1O` (centres unmarked) [Example 83, methyl 4-(6-(3-ethoxy-4-hydroxy-5-nitrophenyl)-2-oxo-5-phenyl-1,2,3,6-tetrahydropyrimidin-4-yl)phenylcarbamate], below 100 nM.
Same read-out and setting: in the case of `CCOc1cc(C2NC(=O)NC(C3CCCCC3)=C2c2ccsc2)cc([N+](=O)[O-])c1O` (centres unmarked) [Example 174, 6-cyclohexyl-4-(3-ethoxy-4-hydroxy-5-nitrophenyl)-5-(thiophen-3-yl)-3,4-dihydropyrimidin-2(1H)-one] it was below 100 nM; in that of `CCOc1cc(C2NC(=O)NC(C3CCCC3)=C2c2ccccc2)cc([N+](=O)[O-])c1O` (centres unmarked) [Example 172, 6-cyclopentyl-4-(3-ethoxy-4-hydroxy-5-nitrophenyl)-5-phenyl-3,4-dihydropyrimidin-2(1H)-one], below 100 nM; in that of `CCOc1cc(C2NC(=O)NC(c3ccccc3)=C2c2ccccc2)cc(C#N)c1O` (centres unmarked) [Example 69, 3-ethoxy-2-hydroxy-5-(2-oxo-5,6-diphenyl-1,2,3,4-tetrahydropyrimidin-4-yl)benzonitrile], below 1000 nM.
In the case of `CCOc1cc(C2NC(=O)NC(c3ccccc3)=C2c2ccccc2C)cc([N+](=O)[O-])c1O` (centres unmarked) [Example 26, 4-(3-ethoxy-4-hydroxy-5-nitrophenyl)-6-phenyl-5-o-tolyl-3,4-dihydropyrimidin-2(1H)-one], the IC50 is below 1000 nM.
Still for that read-out and setting: in the case of `CCOc1cc(C2NC(=O)NC(c3ccccc3)=C2c2ccccc2F)cc([N+](=O)[O-])c1O` (centres unmarked) [Example 13, 4-(3-ethoxy-4-hydroxy-5-nitrophenyl)-5-(2-fluorophenyl)-6-phenyl-3,4-dihydropyrimidin-2(1H)-one] it was below 100 nM.
Compound `CCOc1cc(C2NC(=O)NC(c3cccc(C#N)c3)=C2c2ccccc2)cc([N+](=O)[O-])c1O` (centres unmarked) [Example 53, 3-(6-(3-ethoxy-4-hydroxy-5-nitrophenyl)-2-oxo-5-phenyl-1,2,3,6-tetrahydropyrimidin-4-yl)benzonitrile] returned an IC50 below 100 nM.
The compound `CCOc1cc(C2NC(=O)NC(c3ccccc3)=C2C2CCCCC2)cc([N+](=O)[O-])c1O` (centres unmarked) [Example 177, 5-cyclohexyl-4-(3-ethoxy-4-hydroxy-5-nitrophenyl)-6-phenyl-3,4-dihydropyrimidin-2(1H)-one] returned an IC50 below 100 nM.
The same measure, in the same setting: in the case of `CCOc1cc(C2NC(=O)NC(c3ccncc3)=C2c2ccccc2)cc([N+](=O)[O-])c1O` (centres unmarked) [Example 71, 4-(3-ethoxy-4-hydroxy-5-nitrophenyl)-5-phenyl-6-(pyridin-4-yl)-3,4-dihydropyrimidin-2(1H)-one] it was below 100 nM.
